Measurements reported in ChEMBL document CHEMBL1201862, “PubChem BioAssay data set” (2004).
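Step 1: Grow cells in 96-well plates. Step 2: Expose to compound for 48 hours at 5 concentrations. Step 3: Interpolate endpoints linearly; if unreached, use highest concentration. GI50 is the concentration that inhibits growth by half.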 The source made the active and inactive calls. No stated cut-off is given here; in the data, active = GI50 up to about 1.1 µM and inactive = higher.

Experiments:
Experiment in all cases: growth of human tumour cells (NCI), 48 h
[1] = test system: 786-0
[2] = test system: A498
[3] = test system: A549
[4] = test system: ACHN
[5] = test system: CAKI-1
[6] = test system: CCRF-CEM
[7] = test system: COLO 205
[8] = test system: DU-145
[9] = test system: EKVX
[10] = test system: HCC 2998
[11] = test system: HCT-116
[12] = test system: HCT-15
[13] = test system: HL-60
[14] = test system: HOP-62
[15] = test system: HOP-92
[16] = test system: HT-29
[17] = test system: Hs-578T
[18] = test system: IGROV-1
[19] = test system: K562
[20] = test system: KM12
[21] = test system: LOX IMVI
[22] = test system: M14
[23] = test system: MCF7
[24] = test system: MDA-MB-231
[25] = test system: MDA-MB-435
[26] = test system: MDA-N
[27] = test system: MOLT-4
[28] = test system: Malme-3M
[29] = test system: NCI-H226
[30] = test system: NCI-H23
[31] = test system: NCI-H460
[32] = test system: NCI-H522
[33] = test system: NCI/ADR-RES
[34] = test system: OVCAR-3
[35] = test system: OVCAR-4
[36] = test system: OVCAR-5
[37] = test system: OVCAR-8
[38] = test system: PC-3
[39] = test system: RPMI-8226
[40] = test system: RXF 393
[41] = test system: SF-268
[42] = test system: SF-295
[43] = test system: SF-539
[44] = test system: SK-MEL-28
[45] = test system: SK-MEL-2
[46] = test system: SK-MEL-5
[47] = test system: SK-OV-3
[48] = test system: SN12C
[49] = test system: SNB-19
[50] = test system: SR
[51] = test system: SW-620
[52] = test system: T47D
[53] = test system: TK-10
[54] = test system: U-251
[55] = test system: UACC-257
[56] = test system: UACC-62
[57] = test system: UO-31
[58] = test system: SNB-75

In the case of `O/N=C1\CSc2ccccc2C1`, the GI50 [1] is reported as > 100 µM (inactive), the GI50 [2] is reported as 51.6 µM (inactive) and the GI50 [3] is reported as > 100 µM (inactive). The GI50 [4] was > 100 µM (inactive), the GI50 [5] was 90.2 µM (inactive) and the GI50 [6] was > 100 µM (inactive). The GI50 [7] was > 100 µM (inactive), the GI50 [8] was > 100 µM (inactive) and the GI50 [9] was 30.6 µM (inactive). For the same compound, the GI50 [10] was > 100 µM (inactive), the GI50 [11] was > 100 µM (inactive) and the GI50 [12] was over 100 µM. For the same compound, the GI50 [13] was 5.33 µM (inactive), the GI50 [14] was > 100 µM (inactive) and the GI50 [15] was 59.4 µM (inactive). The GI50 [16] was > 100 µM (inactive), the GI50 [17] was 41.8 µM (inactive) and the GI50 [18] was > 100 µM (inactive). The GI50 [19] was > 100 µM (inactive), the GI50 [20] was > 100 µM (inactive) and the GI50 [21] was > 100 µM (inactive). The GI50 [22] was > 100 µM (inactive), the GI50 [23] was > 100 µM (inactive) and the GI50 [24] was > 100 µM (inactive). The GI50 [25] was > 100 µM (inactive), the GI50 [26] was > 100 µM (inactive) and the GI50 [27] was > 100 µM (inactive). The GI50 [28] was > 100 µM (inactive), the GI50 [29] was > 100 µM (inactive) and the GI50 [30] was > 100 µM (inactive). For the same compound, the GI50 [31] was > 100 µM (inactive), the GI50 [32] was > 100 µM (inactive) and the GI50 [33] was > 100 µM (inactive). The GI50 [34] was > 100 µM (inactive), the GI50 [35] was > 100 µM (inactive) and the GI50 [36] was > 100 µM (inactive). The GI50 [37] was > 100 µM (inactive), the GI50 [38] was > 100 µM (inactive) and the GI50 [39] was > 100 µM (inactive). The GI50 [40] was 72.3 µM (inactive), the GI50 [41] was > 100 µM (inactive) and the GI50 [42] was > 100 µM (inactive). The GI50 [43] was > 100 µM (inactive), the GI50 [44] was > 100 µM (inactive) and the GI50 [45] was > 100 µM (inactive). The GI50 [46] was > 100 µM (inactive), the GI50 [47] was > 100 µM (inactive) and the GI50 [48] was > 100 µM (inactive). For the same compound, the GI50 [49] was > 100 µM (inactive), the GI50 [50] was 94.4 µM (inactive) and the GI50 [51] was > 100 µM (inactive). For the same compound, the GI50 [52] was > 100 µM (inactive), the GI50 [53] was > 100 µM (inactive) and the GI50 [54] was > 100 µM (inactive). The GI50 [55] was > 100 µM (inactive), the GI50 [56] was > 100 µM (inactive) and the GI50 [57] was > 100 µM (inactive).
In the case of `CSCCC(NC(=O)OCc1ccccc1)P(=O)(O)c1ccccc1` (stereo unspecified), the GI50 [3] is reported as > 100 µM (inactive), the GI50 [4] is reported as > 100 µM (inactive) and the GI50 [5] is reported as > 100 µM (inactive). The GI50 [6] was > 100 µM (inactive), the GI50 [7] was > 100 µM (inactive) and the GI50 [8] was > 100 µM (inactive). For the same compound, the GI50 [10] was > 100 µM (inactive), the GI50 [11] was > 100 µM (inactive) and the GI50 [12] was over 100 µM. The GI50 [13] was > 100 µM (inactive), the GI50 [14] was > 100 µM (inactive) and the GI50 [15] was > 100 µM (inactive). The GI50 [16] was > 100 µM (inactive), the GI50 [17] was > 100 µM (inactive) and the GI50 [18] was > 100 µM (inactive). For the same compound, the GI50 [19] was > 100 µM (inactive), the GI50 [21] was > 100 µM (inactive) and the GI50 [22] was > 100 µM (inactive). For the same compound, the GI50 [23] was > 100 µM (inactive), the GI50 [24] was > 100 µM (inactive) and the GI50 [25] was > 100 µM (inactive). For the same compound, the GI50 [26] was > 100 µM (inactive), the GI50 [27] was > 100 µM (inactive) and the GI50 [29] was > 100 µM (inactive). For the same compound, the GI50 [30] was > 100 µM (inactive), the GI50 [31] was > 100 µM (inactive) and the GI50 [32] was > 100 µM (inactive). For the same compound, the GI50 [33] was > 100 µM (inactive), the GI50 [34] was > 100 µM (inactive) and the GI50 [35] was > 100 µM (inactive). The GI50 [36] was > 100 µM (inactive), the GI50 [37] was > 100 µM (inactive) and the GI50 [38] was > 100 µM (inactive). The GI50 [39] was > 100 µM (inactive), the GI50 [42] was > 100 µM (inactive) and the GI50 [44] was > 100 µM (inactive). The GI50 [45] was > 100 µM (inactive), the GI50 [46] was > 100 µM (inactive) and the GI50 [47] was > 100 µM (inactive). The GI50 [48] was > 100 µM (inactive), the GI50 [49] was > 100 µM (inactive) and the GI50 [58] was > 100 µM (inactive). For the same compound, the GI50 [50] was > 100 µM (inactive), the GI50 [51] was > 100 µM (inactive) and the GI50 [52] was > 100 µM (inactive). For the same compound, the GI50 [53] was > 100 µM (inactive), the GI50 [54] was > 100 µM (inactive) and the GI50 [55] was > 100 µM (inactive). The GI50 [57] was > 100 µM (inactive).
